Our source for the inhibition and Ratio values is ChEMBL document CHEMBL1681664, “Specific biotinylation of IMP dehydrogenase” (Bioorg Med Chem Lett, 2011).

For assay [1], the target named is Inosine-5'-monophosphate dehydrogenase 2 (Homo sapiens) (UniProt P12268). Nature of the assay: Inhibition of human IMPDH2 at 200 uM by SDS-PAGE in presence of 6 mM dithiothreitol.
For assay [2], the system named is Escherichia coli. Briefly: Ratio of Kinact to Ki for Escherichia coli IMPDH at 25 degC.
Assay [3] concerns the target Inosine-5'-monophosphate dehydrogenase 2 (Homo sapiens) (UniProt P12268). Nature of the assay: Ratio of Kinact to Ki for human IMPDH2 at 25 degC.
Assay [4] concerns Escherichia coli. Nature of the assay: Inhibition of IMPDH in wild type Escherichia coli MG1655 cell lysate by SDS-PAGE.
In assay [5] the test system is Escherichia coli. Nature of the assay: Inhibition of GMPR in wild type Escherichia coli MG1655 cell lysate by SDS-PAGE.
The target in assay [6] is Inosine-5'-monophosphate dehydrogenase 2 (Homo sapiens) (UniProt P12268). Nature of the assay: Inhibition of human IMPDH2 at 200 uM by SDS-PAGE.
Assay [7] has the same target. Briefly: Ratio of Kinact to Ki for human IMPDH2 at 37 degC.
Assay [8] relates to Escherichia coli. Nature of the assay: Inhibition of recombinant Escherichia coli IMPDH with active site Cys replaced with Ala mutant by SDS-PAGE.
Assay [9] concerns the target Inosine-5'-monophosphate dehydrogenase 2 (Homo sapiens) (UniProt P12268). Nature of the assay: Inhibition of human IMPDH2 at 100 to 500 uM at pH 8.
The test system of assay [10] is Escherichia coli. Nature of the assay: Inhibition of recombinant Escherichia coli IMPDH by SDS-PAGE.

Structures are written as SMILES. The source made the active and inactive calls. No cut-off for these calls is given here.

Chain of Inosine-5'-monophosphate dehydrogenase 2 (Homo sapiens) (P12268 2-514 limits assumed): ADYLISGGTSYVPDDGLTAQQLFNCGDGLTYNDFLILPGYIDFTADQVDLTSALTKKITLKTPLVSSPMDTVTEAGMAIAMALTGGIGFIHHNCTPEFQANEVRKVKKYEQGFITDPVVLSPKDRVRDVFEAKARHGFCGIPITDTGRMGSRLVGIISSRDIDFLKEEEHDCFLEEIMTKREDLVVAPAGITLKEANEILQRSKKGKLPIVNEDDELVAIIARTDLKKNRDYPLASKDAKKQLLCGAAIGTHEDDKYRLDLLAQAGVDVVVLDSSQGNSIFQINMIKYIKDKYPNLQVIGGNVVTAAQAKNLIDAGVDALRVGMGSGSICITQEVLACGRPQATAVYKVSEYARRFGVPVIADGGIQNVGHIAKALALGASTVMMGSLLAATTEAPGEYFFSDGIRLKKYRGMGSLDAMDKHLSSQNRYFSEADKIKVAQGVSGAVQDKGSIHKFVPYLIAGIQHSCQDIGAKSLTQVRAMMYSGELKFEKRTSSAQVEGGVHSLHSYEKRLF

For the compound `O=P(O)(O)OC[C@H]1O[C@@H](n2cnc3c(Cl)ncnc32)[C@H](O)[C@@H]1O`, in [1], the inhibition entry was “inactive”. Also, the values for the Ratio in [2] and in assay [3] were 120 M⁻¹ s⁻¹ and 0.9 M⁻¹ s⁻¹, respectively.
As to `O=C(CCCC[C@@H]1SC[C@@H]2NC(=O)N[C@@H]21)NCCCO[C@@H]1[C@H](O)[C@@H](COP(=O)(O)O)O[C@H]1n1cnc2c(Cl)ncnc21`, the inhibition entry in [4], in assay [5], in assay [6], in assay [9] and in assay [10] was “Active” throughout. The results for the Ratio in assay [7] and in assay [2] were 1.4 M⁻¹ s⁻¹ and 130 M⁻¹ s⁻¹, respectively. Moreover, the inhibition entry in assay [8] was “inactive”.
